The NIST ThermoML archive (doi:10.1016/j.tca.2012.01.013)
± gives the expanded uncertainty stated by the source.

Key:
[1] = xn = mol fraction of the nth substance listed; conditions: 101 kPa, Liquid, Vibrating tube method
[2] = refractive index (Na D-line) (dimensionless); xn = mol fraction of the nth substance listed; conditions: 101 kPa, Liquid, Standard Abbe refractometry

COC(=O)c1ccccc1C(=O)OC [dimethyl 1,2-benzenedicarboxylate] + CCCCO
Conditions | mass density, [1] [kg/m3] | refractive index, [2]
288.15 K, x1 = 0.0997 | 877.193 ± 0.17 | 1.42114 ± 0.00037
288.15 K, x1 = 0.1998 | 932.375 ± 0.16 | 1.43796 ± 0.00037
288.15 K, x1 = 0.2994 | 980.153 ± 0.15 | 1.45268 ± 0.00037
288.15 K, x1 = 0.3999 | 1022.54 ± 0.17 | 1.4657 ± 0.00037
288.15 K, x1 = 0.5 | 1059.92 ± 0.2 | 1.47709 ± 0.00038
288.15 K, x1 = 0.5985 | 1092.78 ± 0.23 | 1.48663 ± 0.00038
288.15 K, x1 = 0.7001 | 1123.06 ± 0.27 | 1.49584 ± 0.00039
288.15 K, x1 = 0.8016 | 1150.29 ± 0.31 | 1.50398 ± 0.00039
288.15 K, x1 = 0.9002 | 1174.24 ± 0.35 | 1.51118 ± 0.0004
288.15 K, x1 = 1 | 1196.26 ± 0.39 | 1.51779 ± 0.0004
293.15 K, x1 = 0.0997 | 873.146 ± 0.18 | 1.41907 ± 0.00037
293.15 K, x1 = 0.1998 | 928.143 ± 0.17 | 1.43584 ± 0.00037
293.15 K, x1 = 0.2994 | 975.792 ± 0.16 | 1.45052 ± 0.00037
293.15 K, x1 = 0.3999 | 1018.08 ± 0.17 | 1.46353 ± 0.00038
293.15 K, x1 = 0.5 | 1055.37 ± 0.2 | 1.47491 ± 0.00038
293.15 K, x1 = 0.5985 | 1088.17 ± 0.23 | 1.48446 ± 0.00038
293.15 K, x1 = 0.7001 | 1118.42 ± 0.27 | 1.49365 ± 0.00039
293.15 K, x1 = 0.8016 | 1145.63 ± 0.31 | 1.50183 ± 0.00039
293.15 K, x1 = 0.9002 | 1169.57 ± 0.35 | 1.50903 ± 0.0004
293.15 K, x1 = 1 | 1191.59 ± 0.39 | 1.51565 ± 0.0004
298.15 K, x1 = 0.0997 | 869.077 ± 0.18 | 1.41699 ± 0.00037
298.15 K, x1 = 0.1998 | 923.892 ± 0.17 | 1.43374 ± 0.00037
298.15 K, x1 = 0.2994 | 971.414 ± 0.16 | 1.44835 ± 0.00037
298.15 K, x1 = 0.3999 | 1013.6 ± 0.17 | 1.46136 ± 0.00038
298.15 K, x1 = 0.5 | 1050.83 ± 0.2 | 1.47274 ± 0.00038
298.15 K, x1 = 0.5985 | 1083.57 ± 0.23 | 1.48227 ± 0.00038
298.15 K, x1 = 0.7001 | 1113.78 ± 0.26 | 1.49148 ± 0.00039
298.15 K, x1 = 0.8016 | 1140.96 ± 0.3 | 1.49966 ± 0.00039
298.15 K, x1 = 0.9002 | 1164.91 ± 0.34 | 1.50689 ± 0.0004
298.15 K, x1 = 1 | 1186.93 ± 0.39 | 1.51354 ± 0.0004
303.15 K, x1 = 0.0997 | 864.981 ± 0.18 | 1.41489 ± 0.00037
303.15 K, x1 = 0.1998 | 919.619 ± 0.17 | 1.43158 ± 0.00037
303.15 K, x1 = 0.2994 | 967.016 ± 0.16 | 1.44618 ± 0.00037
303.15 K, x1 = 0.3999 | 1009.11 ± 0.16 | 1.45918 ± 0.00038
303.15 K, x1 = 0.5 | 1046.26 ± 0.19 | 1.47057 ± 0.00038
303.15 K, x1 = 0.5985 | 1078.96 ± 0.22 | 1.4801 ± 0.00038
303.15 K, x1 = 0.7001 | 1109.14 ± 0.26 | 1.48929 ± 0.00039
303.15 K, x1 = 0.8016 | 1136.31 ± 0.3 | 1.49753 ± 0.00039
303.15 K, x1 = 0.9002 | 1160.25 ± 0.34 | 1.50474 ± 0.0004
303.15 K, x1 = 1 | 1182.28 ± 0.38 | 1.51146 ± 0.0004
308.15 K, x1 = 0.0997 | 860.864 ± 0.18 | 1.41266 ± 0.00037
308.15 K, x1 = 0.1998 | 915.319 ± 0.17 | 1.42932 ± 0.00037
308.15 K, x1 = 0.2994 | 962.593 ± 0.16 | 1.44399 ± 0.00037
308.15 K, x1 = 0.3999 | 1004.6 ± 0.16 | 1.45694 ± 0.00038
308.15 K, x1 = 0.5 | 1041.69 ± 0.19 | 1.46834 ± 0.00038
308.15 K, x1 = 0.5985 | 1074.34 ± 0.22 | 1.47795 ± 0.00038
308.15 K, x1 = 0.7001 | 1104.49 ± 0.26 | 1.4871 ± 0.00039
308.15 K, x1 = 0.8016 | 1131.65 ± 0.3 | 1.49537 ± 0.00039
308.15 K, x1 = 0.9002 | 1155.59 ± 0.34 | 1.50263 ± 0.0004
308.15 K, x1 = 1 | 1177.62 ± 0.38 | 1.50943 ± 0.0004
313.15 K, x1 = 0.0997 | 856.701 ± 0.18 | 1.41048 ± 0.00037
313.15 K, x1 = 0.1998 | 910.989 ± 0.16 | 1.42712 ± 0.00037
313.15 K, x1 = 0.2994 | 958.146 ± 0.15 | 1.4417 ± 0.00037
313.15 K, x1 = 0.3999 | 1000.06 ± 0.15 | 1.45469 ± 0.00037
313.15 K, x1 = 0.5 | 1037.11 ± 0.18 | 1.4662 ± 0.00038
313.15 K, x1 = 0.5985 | 1069.7 ± 0.21 | 1.47585 ± 0.00038
313.15 K, x1 = 0.7001 | 1099.84 ± 0.25 | 1.48507 ± 0.00039
313.15 K, x1 = 0.8016 | 1126.98 ± 0.29 | 1.4933 ± 0.00039
313.15 K, x1 = 0.9002 | 1150.93 ± 0.33 | 1.50061 ± 0.0004
313.15 K, x1 = 1 | 1172.97 ± 0.37 | 1.50736 ± 0.0004
318.15 K, x1 = 0.0997 | 852.519 ± 0.18 | 1.40835 ± 0.00037
318.15 K, x1 = 0.1998 | 906.628 ± 0.17 | 1.42501 ± 0.00037
318.15 K, x1 = 0.2994 | 953.674 ± 0.16 | 1.43965 ± 0.00037
318.15 K, x1 = 0.3999 | 995.51 ± 0.15 | 1.45257 ± 0.00037
318.15 K, x1 = 0.5 | 1032.5 ± 0.18 | 1.46395 ± 0.00038
318.15 K, x1 = 0.5985 | 1065.06 ± 0.21 | 1.47376 ± 0.00038
318.15 K, x1 = 0.7001 | 1095.18 ± 0.25 | 1.48299 ± 0.00039
318.15 K, x1 = 0.8016 | 1122.32 ± 0.29 | 1.49121 ± 0.00039
318.15 K, x1 = 0.9002 | 1146.27 ± 0.33 | 1.49853 ± 0.0004
318.15 K, x1 = 1 | 1168.32 ± 0.37 | 1.50524 ± 0.0004
323.15 K, x1 = 0.0997 | 848.279 ± 0.2 | 1.40609 ± 0.00037
323.15 K, x1 = 0.1998 | 902.232 ± 0.18 | 1.42274 ± 0.00037
323.15 K, x1 = 0.2994 | 949.172 ± 0.17 | 1.4375 ± 0.00037
323.15 K, x1 = 0.3999 | 990.935 ± 0.17 | 1.45024 ± 0.00038
323.15 K, x1 = 0.5 | 1027.87 ± 0.19 | 1.46165 ± 0.00038
323.15 K, x1 = 0.5985 | 1060.4 ± 0.22 | 1.47156 ± 0.00038
323.15 K, x1 = 0.7001 | 1090.51 ± 0.25 | 1.48083 ± 0.00039
323.15 K, x1 = 0.8016 | 1117.65 ± 0.29 | 1.48906 ± 0.00039
323.15 K, x1 = 0.9002 | 1141.61 ± 0.33 | 1.4964 ± 0.0004
323.15 K, x1 = 1 | 1163.67 ± 0.37 | 1.5032 ± 0.0004
